Data taken from patent US9815831B2, “3,5-disubstituted-3H-imidazo[4,5-B]pyridine and 3,5-disubstituted-3H-[1,2,3]triazolo[4,5-B] pyridine compounds as modulators of c-Met protein kinases” (Rhizen Pharmaceuticals SA, priority 2012, dated 2017).
Where two headings read alike, the source gives them in different places.

Experiments:
MKN-45 = assay: Inhibition of MKN-45 proliferation (MTT); type: cell-based, human; settings: Homo sapiens, MKN-45 proliferation; for inhibition at 0.1 µM: 100 nM, read-out: MKN45 % inhibition @ 100 nM; for GI50: read-out: MKN45 GI50
Experimental: 3. Inhibition of MKN-45 Proliferation:
Cell proliferation assays were carried out using the high Met expressing human gastric adenocarcinoma cell line, MKN-45, according to the following schedule: • Day 1: Cells were plated in 96-well plates in complete growth medium. • Day 2: Compounds at desired concentrations were added. • Day 5: Cell viability was determined using the 3-[4,5-dimethylthiazol-2-yl]-2,5-diphenyltetrazolium bromide (MTT) dye reduction test. Results: The results are as given as % Inhibition of MKN-45 proliferation at 100 nM and GI50 values in Table 4A to 4C above. 4. Inhibition of c-Met Kinase Phosphorylation in MKN-45 Cells: […]

[1] = biological target: T1, human recombinant Met kinase (Homo sapiens, UniProt P08581); assay: Colorimetric determination of c-Met kinase activity (HTScan Met Kinase Assay Kit); type: biochemical; settings: for inhibition: cells marked *: tested @ 300 nM, read-out: c-Met Enzyme % inhibition; for inhibition at 0.1 µM: 100 nM (cells without *), read-out: c-Met Enzyme % inhibition @ 100 nM
T1 construct: purchased Cell Signalling Technology, Beverly, Mass
T1 sequence (P08581 25-1390): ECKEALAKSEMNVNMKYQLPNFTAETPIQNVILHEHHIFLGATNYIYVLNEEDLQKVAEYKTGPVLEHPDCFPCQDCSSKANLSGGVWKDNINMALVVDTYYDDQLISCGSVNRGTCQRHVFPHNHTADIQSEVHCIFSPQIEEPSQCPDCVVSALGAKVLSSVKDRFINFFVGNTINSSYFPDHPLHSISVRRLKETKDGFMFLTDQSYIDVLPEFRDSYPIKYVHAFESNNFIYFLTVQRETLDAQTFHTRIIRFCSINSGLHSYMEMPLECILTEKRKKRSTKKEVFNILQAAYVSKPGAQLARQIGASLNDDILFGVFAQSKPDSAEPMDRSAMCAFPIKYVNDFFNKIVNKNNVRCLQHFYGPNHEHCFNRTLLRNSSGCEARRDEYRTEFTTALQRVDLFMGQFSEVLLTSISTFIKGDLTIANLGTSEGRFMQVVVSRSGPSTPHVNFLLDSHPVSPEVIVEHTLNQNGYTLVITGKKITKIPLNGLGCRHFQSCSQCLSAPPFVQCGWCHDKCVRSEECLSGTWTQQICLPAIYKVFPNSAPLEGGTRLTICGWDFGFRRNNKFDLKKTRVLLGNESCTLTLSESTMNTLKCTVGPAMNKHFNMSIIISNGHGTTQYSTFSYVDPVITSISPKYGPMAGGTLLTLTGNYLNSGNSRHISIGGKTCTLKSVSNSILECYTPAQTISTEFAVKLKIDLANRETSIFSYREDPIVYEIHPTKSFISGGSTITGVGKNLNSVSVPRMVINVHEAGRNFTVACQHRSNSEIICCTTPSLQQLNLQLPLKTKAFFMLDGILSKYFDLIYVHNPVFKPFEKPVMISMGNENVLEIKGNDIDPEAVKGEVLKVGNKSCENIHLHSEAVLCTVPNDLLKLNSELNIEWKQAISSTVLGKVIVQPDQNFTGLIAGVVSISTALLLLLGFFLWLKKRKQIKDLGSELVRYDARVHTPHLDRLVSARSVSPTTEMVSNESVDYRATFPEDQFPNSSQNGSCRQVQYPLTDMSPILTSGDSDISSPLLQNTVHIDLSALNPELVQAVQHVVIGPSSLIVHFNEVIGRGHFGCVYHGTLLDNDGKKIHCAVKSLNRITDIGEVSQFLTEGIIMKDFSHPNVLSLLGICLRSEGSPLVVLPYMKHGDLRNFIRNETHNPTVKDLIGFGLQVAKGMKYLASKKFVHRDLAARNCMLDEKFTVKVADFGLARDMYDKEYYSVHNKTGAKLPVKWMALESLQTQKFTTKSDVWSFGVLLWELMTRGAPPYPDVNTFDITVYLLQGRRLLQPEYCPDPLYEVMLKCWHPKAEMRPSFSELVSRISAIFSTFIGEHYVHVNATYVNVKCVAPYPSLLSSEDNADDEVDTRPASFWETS
Description: 1. MET Kinase Assay Protocol:
Colorimetric Determination of c-Met Kinase Activity
The receptor tyrosine kinase c-Met is a heterodimeric transmembrane glycoprotein involved in several cellular processes that aid in tumor progression. Phosphorylation of the tyrosine residues in the c-Met kinase domain is critical for its activity and the resulting down-stream effects. The colorimetric assay allows detection of the phosphorylated form of a biotinylated peptide upon activation of human recombinant Met kinase.
MET Kinase Assay Protocol:
c-Met Kinase activity shall be determined using an HTScan® Met Kinase Assay Kit (Cell Signalling Technology, Beverly, Mass.) with modifications. All incubations are carried out at room temperature. Briefly, 12.5 μl of a 4× reaction cocktail (DTT/Kinase buffer containing appropriate quantity of human Met kinase) is added to each well of a 96-well plate containing 12.5 μl pre-diluted compound of interest and incubated for 5 minutes. After the initial incubation, 25 μl/well of 2×ATP/biotinylated peptide is added and incubated for an additional 30 minutes. The reaction is terminated by the addition of 50 μl/well stop buffer (50 mM EDTA, pH 8.0). The reaction mixture (25 μl/well) is then transferred to a streptavidin coated plate (Perkin Elmer, Cat#4009-0010) containing 75 μl dH2O and incubated for 60 minutes. The plate is washed with 200 μl/well wash buffer (1×PBS, 0.05% Tween-20). After washing, 100 μl/well phospho-tyrosine mAb (1:1000 in wash buffer containing 1% BSA) is added and incubated for 60 minutes. After another round of washes, 100 μl/well europium labelled anti-mouse IgG (1:500 in wash buffer containing 1% BSA) is added and incubated for an additional 30 minutes. Following additional washes, 100 μl/well Delfia^(R) enhancement solution (Perkin Elmer, Cat#1244-105) is added and incubated for 45 minutes. Florescence is measured on a microplate reader (BMG Labtech., Germany) at 340 nm (excitation) and 615 nm (emission) for calculating % inhibition. Data generated can be analyzed further using Graphpad Prism (Graphpad software, San Diego Calif.) for determination of IC50.
Results: The results are as given below in Table 4A, 4B and 4C as % Inhibition or IC50 of c-Met

C/C(=N\Nc1ccccn1)c1ccc2nnn(Cc3ccc4ncccc4c3)c2n1 [Example 51, 6-((5-(1-(2-(pyridin-2-yl)hydrazono)ethyl)-3H-[1,2,3]triazolo[4,5-b]pyridin-3-yl)methyl)quinoline] showed an inhibition at 0.1 µM (MKN-45; MKN-45, Table 4A) of under 25% and an inhibition ([1]; Table 4A) of under 25%.
Work on C/C(=N\NC(=O)OC(C)(C)C)c1ccc2nnn(Cc3ccc4ncccc4c3)c2n1 [Example 53, tert-butyl 2-(1-(3-(quinolin-6-ylmethyl)-3H-[1,2,3]triazolo[4,5-b]pyridin-5-yl)ethylidene)hydrazinecarboxylate] yielded an inhibition at 0.1 µM (MKN-45; MKN-45, Table 4A) of under 25% and an inhibition ([1]; Table 4A) of under 25%.
In the case of O=C(NOCCO)c1ccc(-c2ccc3nnn(Cc4cc5cccnc5cc4F)c3n2)cc1F [Example 27, 2-fluoro-4-(3-((7-fluoroquinolin-6-yl)methyl)-3H-[1,2,3]triazolo[4,5-b]pyridin-5-yl)-N-(2-hydroxyethoxy)benzamide], the inhibition at 0.1 µM (MKN-45; MKN-45, Table 4A) is reported as 75 to 100%, the GI50 (MKN-45; MKN-45, Table 4A) is reported as 25 to 50 nM and the inhibition at 0.1 µM ([1]; Table 4A) is reported as 75 to 100%.
CONC(=O)c1c(F)cc(-c2ccc3ncn(Cc4ccc5ncccc5c4)c3n2)cc1F [Example 105, 2,6-difluoro-N-methoxy-4-(3-(quinolin-6-ylmethyl)-3H-imidazo[4,5-b]pyridin-5-yl)benzamide] gave an inhibition at 0.1 µM (MKN-45; MKN-45, Table 4B) of under 25% and an inhibition ([1]; Table 4B) of 25 to 50%.
With CC(O)CONC(=O)c1ccc(-c2ccc3nnn(Cc4ccc5ncccc5c4)c3n2)cc1Cl (stereo not drawn) [Example 28, 2-chloro-N-(2-hydroxypropoxy)-4-(3-(quinolin-6-ylmethyl)-3H-[1,2,3]triazolo[4,5-b]pyridin-5-yl)benzamide] the inhibition at 0.1 µM (MKN-45; MKN-45, Table 4A) was 75 to 100%, the GI50 (MKN-45; MKN-45, Table 4A) was 25 to 50 nM and the inhibition at 0.1 µM ([1]; Table 4A) was 75 to 100%.
Work on O=C(NOCCO)c1ccc(-c2ccc3nnn(Cc4ccc5ncccc5c4)c3n2)cc1 [Example 22, N-(2-hydroxyethoxy)-4-(3-(quinolin-6-ylmethyl)-3H-[1,2,3]triazolo[4,5-b]pyridin-5-yl)benzamide] yielded an inhibition at 0.1 µM (MKN-45; MKN-45, Table 4A) of 50 to 75%, a GI50 (MKN-45; MKN-45, Table 4A) of 50 to 100 nM and an inhibition at 0.1 µM ([1]; Table 4A) of 75 to 100%.
With Cc1cc(-c2ccc3nnn(Cc4ccc5ncccc5c4)c3n2)ccc1C(=O)NOC[C@@H](C)O [Example 38, (R)—N-(2-hydroxypropoxy)-2-methyl-4-(3-(quinolin-6-ylmethyl)-3H-[1,2,3]triazolo[4,5-b]pyridin-5-yl)benzamide] the inhibition at 0.1 µM (MKN-45; MKN-45, Table 4A) was 75 to 100% and the inhibition at 0.1 µM ([1]; Table 4A) was 75 to 100%.
C/C(=N\NC(N)=S)c1ccc2ncn(Cc3ccc4ncccc4c3)c2n1 [Example 108, 2-(1-(3-(quinolin-6-ylmethyl)-3H-imidazo[4,5-b]pyridin-5-yl)ethylidene)hydrazinecarbothioamide] gave an inhibition at 0.1 µM (MKN-45; MKN-45, Table 4B) of under 25% and an inhibition ([1]; Table 4B) of under 25%.
C/C(=N\OCCNC(N)=O)c1ccc2nnn(Cc3ccc4ncccc4c3)c2n1 [Example 64, 1-(2-(1-(3-(quinolin-6-ylmethyl)-3H-[1,2,3]triazolo[4,5-b]pyridin-5-yl)ethylideneaminooxy)ethyl)urea] gave an inhibition at 0.1 µM ([1]; Table 4A) of 50 to 75%.
Cc1cc(-c2ccc3nnn(Cc4ccc5ncccc5c4)c3n2)ccc1C(=O)NOC[C@H](C)O [Example 36, (S)—N-(2-hydroxypropoxy)-2-methyl-4-(3-(quinolin-6-ylmethyl)-3H-[1,2,3]triazolo[4,5-b]pyridin-5-yl)benzamide] gave an inhibition at 0.1 µM ([1]; Table 4A) of 75 to 100%.
In the case of NC(=O)c1c(F)cc(-c2ccc3nnn(Cc4ccc5c(ccc[n+]5[O-])c4)c3n2)cc1F [Example 1001, 6-((5-(4-carbamoyl-3,5-difluorophenyl)-3H-[1,2,3]triazolo[4,5-b]pyridin-3-yl)methyl)quinoline 1-oxide], the inhibition at 0.1 µM ([1]; Table 4C) is reported as under 25%.
Molecule CC(=O)OCCONC(=O)c1ccc(-c2ccc3nnn(Cc4ccc5ncccc5c4)c3n2)cc1C [Example 43, 2-(2-methyl-4-(3-(quinolin-6-ylmethyl)-3H-[1,2,3]triazolo[4,5-b]pyridin-5-yl)benzamidooxy)ethyl acetate] has an inhibition at 0.1 µM ([1]; Table 4A) of 75 to 100%.
For O=C1NCc2cc(-c3ccc4ncn(Cc5ccc6ncccc6c5)c4n3)ccc21 [Example 1033, 5-(3-Quinolin-6-ylmethyl-3H-imidazo[4,5-b]pyridin-5-yl)-2,3-dihydro-isoindol-1-one], the inhibition at 0.1 µM ([1]; Table 4C) was under 25%.
